From patent publication US20140303092A1 (CHIMERIX, INC., priority 2011, published 2014)

Assay: Study HDP-CDV-201: safety and tolerability (adverse events, laboratory abnormalities, discontinuations)
Assay type: in vivo, human (adult allogeneic HSCT recipients)
Protocol: Clinical Studies of HDP-CDV were performed and described in detail in the following Examples. For example, HDP-CDV-201 is a placebo-controlled, dose-escalating trial in HSCT CMV (R+) recipients, evaluating the ability of HDP-CDV to prevent or control CMV infection was carried out. Five cohorts were established in which participants or subjects received either placebo or the HDP-CDV orally, in doses ranging from 40 mg weekly (QW) to 200 mg twice weekly (BIW). Subjects who were post-HSCT were enrolled at the time of engraftment and randomized to HDP-CDV or placebo (3 to 1 ratio) and received blinded therapy until approximately 100 day post-transplantation. HDP-CDV doses were 40 mg QW, 100 mg QW, 200 mg QW, 200 mg BIW and 100 mg BIW. Escalation to the next dose was decided by the data monitoring committee after review of the safety data from the previous Cohort. Subjects who developed CMV disease or CMV infection requiring pre-emptive therapy with local standard of care were discontinued from blinded therapy and followed for 4 weeks. Subjects who completed treatment with blinded therapy were followed for 8 weeks post-therapy.
Data from Study HDP-CDV-201 also provided characterization of the safety and tolerability profile of HDP-CDV when administered for the prevention or control of CMV infection in high risk (R^+) post-HSCT adult subjects.
The Safety population (SAFETY) included all randomized subjects who took at least one dose of study treatment. This population was used to summarize safety outcomes based on the treatment actually received, in cases where a subject was treated contrary to the randomization schedule.
The safety and tolerability profile of HDP-CDV, including subject demographics and Baseline characteristics; the AE profile; and laboratory abnormalities of interest were analyzed in the cohorts followed in this investigation.
Subjects completing the treatment period received a full course of study medication; those completing the entire study attended visits through 8 weeks of follow up. Subjects who discontinued treatment may have done so for protocol specified reasons (e.g. development of clinically significant CMV infection requiring preemptive treatment with excluded anti-CMV medications) or for other reasons (e.g., withdrawal, adverse events, loss to follow-up). The disposition of subjects in Study HDP-CDV-201 during the double-blind, placebo-controlled treatment period (through Week 11) is listed by dosing Cohort in TABLE 23.
Adverse events were examined by severity to ensure that all safety signals were identified in this study population. Because of the frequency of events in HSCT recipients, particular attention was given to evaluation of Grade 3 […], 4 (severe), and 5 (fatal) adverse events.
Only those preferred terms for which at least one Grade 3 or higher event was experienced in any treatment group are listed. Cytomegalovirus-related AEs are excluded from this analysis.
HDP-CDV is a lipid conjugate of CDV. Because CDV is known to have adverse effects on renal function and bone marrow, decreased GFR and persistent neutropenia were identified as AEs of special interest. Key renal and hematological (TABLE 30) laboratory parameters were measured and listed below by Study HDP-CDV-201 treatment groups. TABLE 30 includes abnormal levels of serum creatinine, neutrophils, platelets, WBCs, and hemoglobin and includes data at Screening and during the treatment period.
A common metric for unit based dosing of medications is by weight (mg/kg). When the distribution of weights was examined for all subjects participating in the study, the median was 78 kg and the lower 25th percentile weight was approximately 65 kg, which translates to a cut-off of ˜3 mg/kg for a 200 mg total weekly dose. Based upon this approach, a cut-off of 3 mg/kg was used to assess the frequency of diarrhea and associated GI AEs reported for the subjects in Cohorts 3 or 4a (TABLE 40).

CCCCCCCCCCCCCCCCOCCCOP(=O)(O)COC(CO)Cn1ccc(N)nc1=O (stereo not shown) [HDP-CDV]
Abnormal ALT >3-5x ULN, Screening, subjects (Cohort 3, >3.0 mg/kg/wk): 0 | Abnormal ALT >5-10x ULN, Any Time Between Week 2 and Week 10, subjects (Cohort 3, >3.0 mg/kg/wk): 0 | Abnormal ALT >5-10x ULN, Screening, subjects (Cohort 3, >3.0 mg/kg/wk): 0 | Abnormal ALT >10-20x ULN, Any Time Between Week 2 and Week 10, subjects (Cohort 3, >3.0 mg/kg/wk): 0 | Abnormal ALT >10-20x ULN, Screening, subjects (Cohort 3, >3.0 mg/kg/wk): 0 | Abnormal ALT >20x ULN, Any Time Between Week 2 and Week 10, subjects (Cohort 3, >3.0 mg/kg/wk): 0 | Abnormal ALT >20x ULN, Screening, subjects (Cohort 3, >3.0 mg/kg/wk): 0 | Abnormal ALT >3-5x ULN, Any Time Between Week 2 and Week 10, subjects (Cohort 3, ≦3.0 mg/kg/wk): 3 (12.5%) | Abnormal ALT >3-5x ULN, Screening, subjects (Cohort 3, ≦3.0 mg/kg/wk): 0 | Abnormal ALT >5-10x ULN, Any Time Between Week 2 and Week 10, subjects (Cohort 3, ≦3.0 mg/kg/wk): 5 (20.8%) | Abnormal ALT >5-10x ULN, Screening, subjects (Cohort 3, ≦3.0 mg/kg/wk): 0 | Abnormal ALT >10-20x ULN, Any Time Between Week 2 and Week 10, subjects (Cohort 3, ≦3.0 mg/kg/wk): 0 | Abnormal ALT >10-20x ULN, Screening, subjects (Cohort 3, ≦3.0 mg/kg/wk): 0 | Abnormal ALT >20x ULN, Any Time Between Week 2 and Week 10, subjects (Cohort 3, ≦3.0 mg/kg/wk): 1 (4.2%) | Abnormal ALT >20x ULN, Screening, subjects (Cohort 3, ≦3.0 mg/kg/wk): 0 | Grade of hepatobiliary AE hepatomegaly, subject 4019 (Cohort 4): 1 | Grade of hepatobiliary AE hyperbilirubenemia, subject 4001 (Cohort 4): 2 | Grade of hepatobiliary AE hyperbilirubinemia, subject 4014 (Cohort 4): 4 | Grade of hepatobiliary AE hyperbilirubinemia, subject 4041 (Cohort 4): 1 | Grade of hepatobiliary AE jaundice, subject 4002 (Cohort 4): 1 | Grade of hepatobiliary AE worsening hyperbilirubinemia, subject 4004 (Cohort 4): 1 | Outcome of hepatobiliary AE hepatomegaly, subject 4019 (Cohort 4): recovered/resolved | Outcome of hepatobiliary AE hyperbilirubenemia, subject 4001 (Cohort 4): not recovered/not | Outcome of hepatobiliary AE hyperbilirubinemia, subject 4014 (Cohort 4): not recovered/not | Outcome of hepatobiliary AE hyperbilirubinemia, subject 4041 (Cohort 4): recovered/resolved | Outcome of hepatobiliary AE jaundice, subject 4002 (Cohort 4): not recovered/not | Outcome of hepatobiliary AE worsening hyperbilirubinemia, subject 4004 (Cohort 4): recovered/resolved | Relationship of hepatobiliary AE hepatomegaly, subject 4019 (Cohort 4): not related | Relationship of hepatobiliary AE hyperbilirubenemia, subject 4001 (Cohort 4): not related | Relationship of hepatobiliary AE hyperbilirubinemia, subject 4014 (Cohort 4): not related | Relationship of hepatobiliary AE hyperbilirubinemia, subject 4041 (Cohort 4): not related | Relationship of hepatobiliary AE jaundice, subject 4002 (Cohort 4): not related | Relationship of hepatobiliary AE worsening hyperbilirubinemia, subject 4004 (Cohort 4): not related | subjects discontinued due to neutropenia (Cohort 4): 0 subject(s) | ALT (Screening) >3 × ULN-5 × ULN, subjects (Cohort 4, 200 mg BIW): 2 (6.7%) | ALT (Screening) >5 × ULN-10 × ULN, subjects (Cohort 4, 200 mg BIW): 2 (6.7%) | ALT (Screening) >10 × ULN-20 × ULN, subjects (Cohort 4, 200 mg BIW): 0 | ALT (Screening) >20 × ULN, subjects (Cohort 4, 200 mg BIW): 0 | ALT (any time during therapy) >3 × ULN-5 × ULN, subjects (Cohort 4, 200 mg BIW): 4 (13.8%) | ALT (any time during therapy) >5 × ULN-10 × ULN, subjects (Cohort 4, 200 mg BIW): 6 (20.7%) | ALT (any time during therapy) >10 × ULN-20 × ULN, subjects (Cohort 4, 200 mg BIW): 2 (6.9%) | ALT (any time during therapy) >20 × ULN, subjects (Cohort 4, 200 mg BIW): 0 | AST (Screening) >3 × ULN-5 × ULN, subjects (Cohort 4, 200 mg BIW): 1 (3.3%) | AST (Screening) >5 × ULN-10 × ULN, subjects (Cohort 4, 200 mg BIW): 0 | AST (Screening) >10 × ULN-20 × ULN, subjects (Cohort 4, 200 mg BIW): 0 | AST (Screening) >20 × ULN, subjects (Cohort 4, 200 mg BIW): 0 | AST (any time during therapy) >3 × ULN-5 × ULN, subjects (Cohort 4, 200 mg BIW): 6 (20.7%) | AST (any time during therapy) >5 × ULN-10 × ULN, subjects (Cohort 4, 200 mg BIW): 0 | AST (any time during therapy) >10 × ULN-20 × ULN, subjects (Cohort 4, 200 mg BIW): 0 | AST (any time during therapy) >20 × ULN, subjects (Cohort 4, 200 mg BIW): 0 | Alkaline Phosphatase (Screening) >2.5-5.0 × ULN, subjects (Cohort 4, 200 mg BIW): 0 | Alkaline Phosphatase (Screening) >5.0-20.0 × ULN, subjects (Cohort 4, 200 mg BIW): 0 | Alkaline Phosphatase (Screening) >20.0 × ULN, subjects (Cohort 4, 200 mg BIW): 0 | Alkaline Phosphatase (Screening) >ULN-[…] ULN, subjects (Cohort 4, 200 mg BIW): 7 (23.3%) | Alkaline Phosphatase (any time during therapy) >2.5-5.0 × ULN, subjects (Cohort 4, 200 mg BIW): 0
